Patent publication US8889881B2, “Compound having skin-whitening, anti-oxidizing and PPAR activities and medical use therefor” (Pusan National University Industry —University Cooperation …, priority 2011, dated 2014)

How the values were obtained:
[1] = test system: YPEN-1 cells (rat prostatic endothelial cell line); assay: In vitro ROS scavenging activity assay (DCFDA); type: cell-based; settings: cells pre-treated with 50 μM SIN-1 for 1 hour; DCFDA fluorescence; positive control trolox; FIGS. 1 and 2
Procedure: YPEN-1 cells (rat prostatic endothelial cell line) was obtained from American type culture collection (ATCC, Manassas, Va., USA), and the cells were cultured by using a dulbecco's modified eagle medium (DMEM, Nissui, Tokyo, Japan) containing 2 mM L-glutamine, […], 2.5 mg/L amphotericin B, and 5% inactivated fetal bovine serum (FBS). Also, the cells were maintained at a temperature of 37° C. in a humid atmosphere-like condition containing 5% CO2 and 95% air. […] The cells were sub-cultured in 100 mm plastic flask (Corning Co., New York, USA) every two days to maintain the cell line.
2′,7′-dichlorodihydrofluorescein diacetate (DCFDA) assay method according to a conventionally known method (Chem Res Toxicol. 5: 227-231, 1992) was used. In detail, 12.5 mM DCFDA dissolved in 99.9% ethanol and 600 U/ml esterase dissolved in tertiary distilled water were stored as a stock solution at a temperature of −20° C., and a 2′,7′-dichlorodihydrofluorescein (DCFH) solution prepared by mixing 10 mM DCFDA and 6 U/ml esterase was cultured at a temperature of 22° C. for 20 minutes, and then, refrigerated in a dark place before use. […] Vascular endothelial cells that were pre-treated with 50 μM 3-morpholinosydnonimine hydrochloride (SIN-1) for 1 hour were used as a reactive oxygen generation source.

[2] = target: T1, PPAR gamma-LBD (Homo sapiens, UniProt P37231); assay: PPAR assay, PPARγ; type: binding; settings: sample final concentration 100 μM; positive control rosiglitazone; FIGS. 7 and 8
T1 sequence (P37231 238-503 limits assumed): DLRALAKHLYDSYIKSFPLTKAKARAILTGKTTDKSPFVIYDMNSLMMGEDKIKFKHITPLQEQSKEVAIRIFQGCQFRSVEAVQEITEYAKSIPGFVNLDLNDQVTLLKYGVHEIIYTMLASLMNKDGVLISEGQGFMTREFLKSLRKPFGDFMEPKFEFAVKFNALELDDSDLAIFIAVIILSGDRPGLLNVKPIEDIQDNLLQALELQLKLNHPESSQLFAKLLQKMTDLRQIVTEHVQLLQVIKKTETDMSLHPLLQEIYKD

[3] = target: T2, PPAR alpha-LBD (Homo sapiens, UniProt Q07869); assay: PPAR assay, PPARα; settings: for PPARα activation (competitive activation rate), compared with fenofibrate: sample final concentration 100 μM, positive control fenofibrate, FIGS. 5 and 6; for simultaneous activation of PPARα and PPARγ: summary of the PPARα and PPARγ assays, sample 100 μM
T2 sequence (Q07869 239-466 limits assumed): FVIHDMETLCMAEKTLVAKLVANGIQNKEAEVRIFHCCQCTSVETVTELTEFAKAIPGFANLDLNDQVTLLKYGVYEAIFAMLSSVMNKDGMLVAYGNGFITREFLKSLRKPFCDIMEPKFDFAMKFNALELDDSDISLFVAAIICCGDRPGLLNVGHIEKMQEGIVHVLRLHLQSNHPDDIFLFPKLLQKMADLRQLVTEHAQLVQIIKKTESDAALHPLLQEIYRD

SMILES	melting point	simultaneous activation of PPARα and PPARγ [3]	scavenging effects on ROS generated by vascular endothelial cells, compared with trolox [1]	PPARγ activation (competitive activation rate), compared with rosiglitazone [2]	PPARα activation (competitive activation rate), compared with fenofibrate [3]
CC(C)(C)[Si](C)(C)Oc1ccc2c(-c3ccccc3)cc(=O)oc2c1O[Si](C)(C)C(C)(C)C [Compound 100, 7,8-bis(tert-butyldimethylsilyloxy)-4-phenyl-2H-chromen-2-one]			as high scavenging effects on ROS generated by vascular endothelial cells as trolox		
Oc1ccc(-c2nc3ccccc3s2)cc1O [Compound 14, 4-(benzo[d]thiazol-2-yl)benzene-1,2-diol]			as high scavenging effects on ROS generated by vascular endothelial cells as trolox		
O=C(O)[C@@H]1CSC(c2ccc(O)c(O)c2)N1 (mixture of isomers) [Compound 2, (2R/S,4R)-2-(3,4-dihydroxyphenyl)thiazolidine-4-carboxylic acid]	195.5 to 196.8 °C		as high scavenging effects on ROS generated by vascular endothelial cells as trolox		
COc1ccc(-c2nc3ccccc3s2)cc1OC [Compound 20, 2-(3,4-dimethoxyphenyl)benzo[d]thiazole]	135 to 137.2 °C	simultaneously activates PPARα and PPARγ		very excellent PPARγ activation agent compared to rosiglitazone	very excellent PPARα activation agent compared to fenofibrate
Oc1ccc(C2NCCS2)cc1O (stereo not shown) [Compound 72, 4-(Thiazolidin-2-yl)benzene-1,2-diol]			as high scavenging effects on ROS generated by vascular endothelial cells as trolox		
COc1cc(C2NCCS2)cc(OC)c1O (stereo not shown) [Compound 80, 2,6-dimethoxy-4-(thiazolidin-2-yl)phenol]			as high scavenging effects on ROS generated by vascular endothelial cells as trolox		

Now from value to compound, other results behind:

melting point	simultaneous activation of PPARα and PPARγ [3]	SMILES	scavenging effects on ROS generated by vascular endothelial cells, compared with trolox [1]	PPARγ activation (competitive activation rate), compared with rosiglitazone [2]	PPARα activation (competitive activation rate), compared with fenofibrate [3]
178 to 179 °C		O=C(O)[C@@H]1CSC(c2ccc(O)c(O)c2)=N1 [Compound 102, (4R)-2-(3,4-dihydroxyphenyl)-4,5-dihydrothiazole-4-carboxylic acid]	as high scavenging effects on ROS generated by vascular endothelial cells as trolox		
137 to 138 °C		COC(=O)c1csc(-c2ccc(OC(C)=O)c(OC(C)=O)c2)n1 [Compound 103, 4-(4-(Methoxycarbonyl)thiazol-2-yl)-1,2-phenylene diacetate]	as high scavenging effects on ROS generated by vascular endothelial cells as trolox		
149.5 to 151.1 °C	simultaneously activates PPARα and PPARγ	COc1cc(-c2nc3ccccc3s2)cc(OC)c1OC [Compound 24, 2-(3,4,5-trimethoxyphenyl)benzo[d]thiazole]		very excellent PPARγ activation agent compared to rosiglitazone	very excellent PPARα activation agent compared to fenofibrate
116 to 118 °C		COC(=O)[C@@H]1CSC(c2ccc(O)c(O)c2)N1 (mixture of isomers) [Compound 104, (2R/S,4R)-methyl 2-(3,4-dihydroxyphenyl)thiazolidine-4-carboxylate]	as high scavenging effects on ROS generated by vascular endothelial cells as trolox		
267.3 to 269.4 °C		Oc1ccc(-c2nc3cc(C(F)(F)F)ccc3s2)cc1O [Compound 29, 4-(5-(trifluoromethyl)benzo[d]thiazol-2-yl)benzene-1,2-diol]	as high scavenging effects on ROS generated by vascular endothelial cells as trolox		
